Where two headings read alike, the source gives them in different places.
Tests used:
B16F10 cells [1] = experiment: Cell morphology of melanoma cells (microscopy); type: cell-based, murine; conditions: 14-42 μg/ml, 24 hr, as-synthesized
Description: For cell morphology, the melanoma cells were seeded in cell culture plates (SPL Korea) and incubated at 37 °C (5% CO2 atmosphere). The cells were then incubated with the various concentrations of 4b and 6a (0 (con), 14, 21, 28, 35, and 42 μg/ml) following 24 hr incubation. The cell morphology was accessed and images were captured using an inverted fluorescent microscope (Nikon, ECLIPSE, Ti).

[2] = test system: tyrosinase expression in B16F10 cells; experiment: Western blot, tyrosinase expression; type: cell-based, murine; conditions: 24 hr
Description: (§1) Melanoma cells were incubated with as-synthesized and plasma-treated 4b and 6a test compounds for 24 hr. Following incubation, treated and untreated cells were lysed in RIPA buffer (Cell Signaling Technology, USA), whole cell protein was extracted and subjected to electrophoresis in 12% SDS-PAGE, and blotted onto nitrocellulose membranes. The membrane was probed with the antibodies raised against MITF, tyrosinase and TRP1 (Abcam, USA). The bands were detected using Super Signal West Pico Chemiluminescent Substrate (Pierce, Rockford, IL, USA) and images were taken using a Vilver imaging system (Vilver, Upland, CA, USA).

mushroom tyrosinase = mushroom tyrosinase (Agaricus bisporus, UniProt C7FF04); experiment: Kinetic analysis of the inhibition of mushroom tyrosinase (Lineweaver-Burk and Dixon plots); type: biochemical; conditions: Lineweaver-Burk plot; substrate L-DOPA; as-synthesized compound
Sequence of mushroom tyrosinase (C7FF04 2-392): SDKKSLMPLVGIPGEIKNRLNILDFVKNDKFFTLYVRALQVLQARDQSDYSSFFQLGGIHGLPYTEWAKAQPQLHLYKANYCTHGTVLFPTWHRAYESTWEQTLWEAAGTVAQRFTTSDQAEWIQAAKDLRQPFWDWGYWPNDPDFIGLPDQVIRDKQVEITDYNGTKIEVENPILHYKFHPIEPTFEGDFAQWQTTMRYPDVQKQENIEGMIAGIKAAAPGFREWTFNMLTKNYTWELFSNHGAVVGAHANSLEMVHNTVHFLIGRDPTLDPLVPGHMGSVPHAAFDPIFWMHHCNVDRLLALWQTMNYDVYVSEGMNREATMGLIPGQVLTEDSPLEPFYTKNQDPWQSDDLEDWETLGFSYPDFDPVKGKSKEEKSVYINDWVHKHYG
Description: Latter, we studied the kinetic behavior of mushroom tyrosinase during the oxidation of L-DOPA with the selective ED compounds (4b and 6a). In the present investigation, the oxidation reaction of L-DOPA by mushroom tyrosinase follows the Michaelis-Menten kinetics. The inhibitory mechanism of both of the compounds was determined by using Lineweaver-Burk plot (double reciprocal plot) as well as a Dixon plot at various concentrations of substrate L-DOPA (0.0, 0.125, 0.25, 0.5, 1.0 and 2.0 mM), as shown in Fig. 4. The double-reciprocal plot of enzyme activity in the presence of compound 4b with concentration 0.0, 18.0, 36.5, 73, 146 μM and compound 6a with concentration 0.0, 6.7, 13.5, 27 μM are shown in Fig. 4(a,b), respectively. […] The Dixon plot was determined by 1/V versus inhibitor concentrations [I] at various concentrations of substrate in mM. […] Further, to determine the action of these eugenol derivatives on the structure of tyrosinase enzyme, we performed CD analysis and molecular docking studies. A series of experiments were performed to determine the inhibition kinetics using the following method. […] The formation of DOPAchrome was continuously monitored at 475 nm for 5 min at a 30 sec intervals in the microplate reader after the addition of the enzyme.

[3] = test system: intracellular ROS in B16F10 cells; experiment: Intracellular ROS measurement (carboxy-H2DCFDA); type: cell-based, murine; conditions: for intracellular ROS level, PAED compared to ED: plasma-treated compound versus as-synthesized compound
Description: Intracellular reactive oxygen species (ROS) were quantified using carboxy-H2DCFDA (5-(and 6)-carboxy-20,70-dichlorodihydrofluorescein diacetate), by monitoring the fluorescence intensity.
Briefly, various concentrations of as-synthesized 4b and 6a or plasma-treated 4b and 6a were incubated with cells. After 24 hr, the cells were centrifuged for 5 min at 1000 rpm and the collected cell pellet was washed with PBS and labeled with carboxy-H2DCFDA dye following 30 min of incubation at 37 °C. The samples were centrifuged again and each pellet was mixed with 500 μl PBS. The 200 μl samples were then transferred in 96-well plates (black plate, clear bottom, corning incorporated USA) and fluorescence was measured at excitation/emission: 485/528 nm using a microplate reader.

[4] = test system: TRP1 expression in B16F10 cells; experiment: Western blot, TRP1 expression; type: cell-based, murine; conditions: 24 hr; for expression of TRP1 versus control: ED (as-synthesized); for expression of TRP1 versus ED: PAED (plasma-treated)
Description: as §1

B16F10 cells [5] = experiment: Intracellular melanin content measurement; type: cell-based, murine; conditions: for activity at 35 µg/mL: Mus musculus, B16-F10, 35 μg/ml, read-out: melanin content, % of control (100%); for melanin, % of control (normalized to 100%): as-synthesized ED, no α-MSH, concentration not given
Description: Melanoma (1.5 × 10^5) cells were seeded in cell culture plates and allowed to attach for 24 hr. Then each eugenol derivative was added and tested separately for melanin activation after 24 hr of incubation. After incubation, cells were detached using trypsin/EDTA and centrifuged at 1000 rpm for 5 min to collect the cell pellets. The cell pellets were solubilized in 1N NaOH at 60 °C for 1 hr. The melanin content was measured spectrophotometrically at 405 nm wavelength using a microplate reader (BioTek, synergy HT)[56]. […] Plasma-treated and non-plasma-treated ED (4b and 6a) were added to the cells, pre-incubated with or without α-MSH (100 nM) for a further 24 hr and melanin content was assayed as described above. Kojic acid can inhibit and α-MSH can stimulate the melanin in the cells, therefore we used them as negative and positive controls.

[6] = test system: MITF expression in B16F10 cells; experiment: Western blot, MITF expression; type: cell-based, murine; conditions: 24 hr; for expression of MITF versus control: ED (as-synthesized); for expression of MITF versus ED: PAED (plasma-treated)
Description: as §1

| Structure (SMILES) | effect on cell morphology (B16F10 cells [1]) | cellular tyrosinase expression versus control ([2]; ED (as-synthesized)) | cellular tyrosinase expression versus control ([2]; PAED (plasma-treated)) | type of inhibition (mushroom tyrosinase) | melting point [°C] | intracellular ROS, comparison between compounds ([3]; independent of plasma treatment) | intracellular ROS level, PAED compared to ED [3] | expression of TRP1 versus control [4] | expression of TRP1 versus ED [4] | activity at 35 µg/mL (B16F10 cells [5]; after plasma treatment for 10 min, absence of α-MSH) [%] | activity at 35 µg/mL (B16F10 cells [5]; as-synthesized, absence of α-MSH) [%] | activity at 35 µg/mL (B16F10 cells [5]; as-synthesized, presence of α-MSH) [%] | melanin, % of control (normalized to 100%) (B16F10 cells [5]) [%] | expression of MITF versus control [6] | expression of MITF versus ED [6] |
| --- | --- | --- | --- | --- | --- | --- | --- | --- | --- | --- | --- | --- | --- | --- | --- |
| C=CCc1ccc(OC(=O)COC(=O)c2ccc(O)cc2)c(OC)c1 [4b, 2-[2-methoxy-4-(prop-2-en-1-yl)phenoxy]-2-oxoethyl 4-hydroxybenzoate] | no effect on cell morphology | no change | no change | competitive inhibitor | 81 to 83 | higher intracellular ROS than 6a | higher intracellular ROS levels | higher expression | more expression | 143 | 125 | 156 | 126 | higher expression | more expression |
| C=CCc1ccc(OC(=O)COC(=O)/C=C/c2ccc(O)cc2)c(OC)c1 [6a, 2-[2-methoxy-4-(prop-2-en-1-yl)phenoxy]-2-oxoethyl(2E)-3-(4-hydroxyphenyl)prop-2-enoate] | no effect on cell morphology | no change | no change | uncompetitive inhibitor | 114 to 116 | – | higher intracellular ROS levels | higher expression | more expression | – | – | – | 125 | higher expression | more expression |

— publication PMC4773869, “Influence of plasma-activated compounds on melanogenesis and tyrosinase activity” (Scientific Reports, 2016)
